According to ChEMBL document CHEMBL4825686, “HTS-based discovery and optimization of novel positive allosteric modulators of the α7 nicotinic acetylcholine receptor” (Eur J Med Chem, 2021):
pEC50: −log10 of the molar value. In brackets after ≈: the same amount, converted by molar mass. Activity calls are given as the source filed them. The calls are words filed in the database; no cut-off is given here.

Tests used:
[1] = target: T1, Neuronal acetylcholine receptor subunit alpha-7 (Homo sapiens, UniProt P36544); experiment: Positive allosteric modulator activity at human alpha7 nAChR expressed in Flp-In-HEK293 cells co-expressing RIC-3 assessed as potentiation of PNU282987-induced calcium influx at 1 uM measured after 10 mins by FLIPR assay; format: cell-based; conditions: Flp-In-293
T1 sequence (P36544 whole entry): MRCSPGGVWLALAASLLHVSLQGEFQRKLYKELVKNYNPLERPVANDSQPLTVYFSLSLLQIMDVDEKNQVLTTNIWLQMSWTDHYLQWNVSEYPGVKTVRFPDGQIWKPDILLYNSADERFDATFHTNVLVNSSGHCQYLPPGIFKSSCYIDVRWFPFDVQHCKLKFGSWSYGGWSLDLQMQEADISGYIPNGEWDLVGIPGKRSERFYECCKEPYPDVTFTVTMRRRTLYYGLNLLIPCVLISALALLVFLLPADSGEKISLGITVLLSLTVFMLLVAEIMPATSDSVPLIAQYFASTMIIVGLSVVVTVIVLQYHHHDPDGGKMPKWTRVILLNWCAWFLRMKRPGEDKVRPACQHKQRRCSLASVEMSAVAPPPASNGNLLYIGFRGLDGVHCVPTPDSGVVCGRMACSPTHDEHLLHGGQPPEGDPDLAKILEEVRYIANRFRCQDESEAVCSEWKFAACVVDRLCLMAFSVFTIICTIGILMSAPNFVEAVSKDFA

Rattus norvegicus [2] = experiment: Reversal of scopolamine induced amnesia in Lister Hooded rat at 0.3 to 10 mg/kg, po administered 25 mins prior to scopolamine injection and measured after 20 mins by rodent touch screen visual discrimination test; format: functional, organism-based; conditions: dose 0.3-10 mg/kg
Rattus norvegicus [3] = experiment: Cognitive enhancing effect in Hannover Wistar rat assessed as increase in novel object recognition index at 1 to 10 mg/kg, po administered 30 mins prior to recognition trail by novel object recognition test; format: functional, organism-based; conditions: dose 1-10 mg/kg
[4] = Mutagenicity in Salmonella typhimurium TA1535 in presence of rat liver S9 fraction by AMES test; format: toxicity, subcellular; conditions: salmonella enterica subsp. enterica serovar typhimurium
Rattus norvegicus [5] = experiment: Cognitive enhancing effect in po dosed Hannover Wistar rat assessed as increase in novel object recognition index administered 30 mins prior to recognition trail by novel object recognition test; format: functional; conditions: 0.5 h, read-out: MED
[6] = target: 5-hydroxytryptamine receptor 2B (Homo sapiens) (UniProt P41595); experiment: Binding affinity to human recombinant 5-HT2B receptor assessed as displacement of radioligand at 10 uM by displacement binding assay
Sequence of 5-hydroxytryptamine receptor 2B (Homo sapiens) (P41595 whole entry): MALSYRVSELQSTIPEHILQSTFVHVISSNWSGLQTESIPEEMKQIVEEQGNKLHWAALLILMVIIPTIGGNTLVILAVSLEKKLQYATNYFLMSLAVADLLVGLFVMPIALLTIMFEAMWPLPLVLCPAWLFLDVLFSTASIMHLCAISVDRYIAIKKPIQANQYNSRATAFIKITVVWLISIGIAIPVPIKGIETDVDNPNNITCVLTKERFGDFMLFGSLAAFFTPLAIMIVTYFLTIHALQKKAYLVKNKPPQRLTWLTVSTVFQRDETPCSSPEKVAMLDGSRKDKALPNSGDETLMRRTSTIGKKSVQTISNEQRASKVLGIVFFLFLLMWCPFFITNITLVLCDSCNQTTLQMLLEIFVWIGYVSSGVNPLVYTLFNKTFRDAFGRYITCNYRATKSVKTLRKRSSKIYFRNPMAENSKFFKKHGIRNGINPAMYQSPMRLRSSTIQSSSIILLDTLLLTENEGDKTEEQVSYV

[7] = Drug uptake in NMRI mouse brain at 10 mg/kg, ip measured after 1 hr by HPLC-MS/MS analysis; format: ADME, organism-based; conditions: read-out: Ct
[8] = Plasma concentration in NMRI mouse at 3 mg/kg, ip measured after 1 hr by HPLC-MS/MS analysis; format: ADME, organism-based
[9] = Drug uptake in Wistar rat brain at 1 mg/kg, ip measured after 35 mins by HPLC-MS/MS analysis; format: ADME, organism-based; conditions: read-out: Ct
[10] = Mutagenicity in Salmonella typhimurium TA100 in absence of rat liver S9 fraction by AMES test; format: toxicity; conditions: salmonella enterica subsp. enterica serovar typhimurium
[11] = Ratio of drug level in NMRI mouse brain to plasma at 3 mg/kg, ip measured after 1 hr by HPLC-MS/MS analysis; format: ADME, organism-based; conditions: read-out: BPR
[12] = Ratio of drug level in Wistar rat brain to plasma at 10 mg/kg, ip measured after 35 mins by HPLC-MS/MS analysis; format: ADME, organism-based; conditions: read-out: BPR
[13] = target: Sodium-dependent dopamine transporter (Homo sapiens) (UniProt Q01959); experiment: Displacement of [125I]RTI55 from human recombinant DAT expressed in CHO-S cells at 10 uM incubated for 3 hrs by radiometric scintillation counting analysis; format: cell-based
Sequence of Sodium-dependent dopamine transporter (Homo sapiens) (Q01959 whole entry): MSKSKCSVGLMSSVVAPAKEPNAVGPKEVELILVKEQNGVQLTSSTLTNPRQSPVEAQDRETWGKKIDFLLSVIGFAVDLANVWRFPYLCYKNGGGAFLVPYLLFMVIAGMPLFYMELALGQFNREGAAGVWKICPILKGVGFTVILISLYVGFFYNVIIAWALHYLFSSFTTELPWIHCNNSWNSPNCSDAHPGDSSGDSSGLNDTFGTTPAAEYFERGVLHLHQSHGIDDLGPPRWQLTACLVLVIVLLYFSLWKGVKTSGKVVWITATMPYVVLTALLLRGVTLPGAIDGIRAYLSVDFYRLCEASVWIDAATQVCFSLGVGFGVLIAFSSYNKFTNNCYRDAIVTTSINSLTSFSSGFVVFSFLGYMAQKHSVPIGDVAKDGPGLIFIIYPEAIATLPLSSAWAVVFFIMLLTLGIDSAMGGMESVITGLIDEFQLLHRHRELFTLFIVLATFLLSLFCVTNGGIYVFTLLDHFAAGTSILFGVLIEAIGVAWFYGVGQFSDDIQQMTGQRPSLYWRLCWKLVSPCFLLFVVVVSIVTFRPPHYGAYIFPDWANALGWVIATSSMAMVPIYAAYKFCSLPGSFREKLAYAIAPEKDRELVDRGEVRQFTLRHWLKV

[14] = Drug uptake in Wistar rat brain at 3 mg/kg, ip measured after 35 mins by HPLC-MS/MS analysis; format: ADME, organism-based; conditions: read-out: Ct
[15] = Mutagenicity in Escherichia coli WP2 uvrA in presence of rat liver S9 fraction by AMES test; format: toxicity, subcellular
[16] = Drug uptake in Wistar rat brain at 10 mg/kg, ip measured after 35 mins by HPLC-MS/MS analysis; format: ADME, organism-based; conditions: read-out: Ct
[17] = Drug uptake in NMRI mouse brain at 1 mg/kg, ip measured after 1 hr by HPLC-MS/MS analysis; format: ADME, organism-based; conditions: read-out: Ct
[18] = Ratio of drug level in NMRI mouse brain to plasma at 1 mg/kg, ip measured after 1 hr by HPLC-MS/MS analysis; format: ADME, organism-based; conditions: read-out: BPR
[19] = Plasma concentration in NMRI mouse at 1 mg/kg, ip measured after 1 hr by HPLC-MS/MS analysis; format: ADME, organism-based
Mus musculus [20] = experiment: Cognitive enhancing effect in ip dosed scopolamine-induced amnesia NMRI mouse model assessed as increase in recognition index administered 30 mins prior to scopolamine injection by Y-maze test; format: functional; conditions: 0.5 h, read-out: MED
[21] = Ratio of drug level in Wistar rat brain to plasma at 3 mg/kg, ip measured after 35 mins by HPLC-MS/MS analysis; format: ADME, organism-based; conditions: read-out: BPR
[22] = Drug uptake in NMRI mouse brain at 3 mg/kg, ip measured after 1 hr by HPLC-MS/MS analysis; format: ADME, organism-based; conditions: read-out: Ct
[23] = target: Sodium-dependent noradrenaline transporter (Homo sapiens) (UniProt P23975); experiment: Displacement of [125I]RTI55 from human recombinant NET expressed in MDCK cells at 10 uM incubated for 3 hrs by radiometric scintillation counting analysis; format: cell-based
Sequence of Sodium-dependent noradrenaline transporter (Homo sapiens) (P23975 whole entry): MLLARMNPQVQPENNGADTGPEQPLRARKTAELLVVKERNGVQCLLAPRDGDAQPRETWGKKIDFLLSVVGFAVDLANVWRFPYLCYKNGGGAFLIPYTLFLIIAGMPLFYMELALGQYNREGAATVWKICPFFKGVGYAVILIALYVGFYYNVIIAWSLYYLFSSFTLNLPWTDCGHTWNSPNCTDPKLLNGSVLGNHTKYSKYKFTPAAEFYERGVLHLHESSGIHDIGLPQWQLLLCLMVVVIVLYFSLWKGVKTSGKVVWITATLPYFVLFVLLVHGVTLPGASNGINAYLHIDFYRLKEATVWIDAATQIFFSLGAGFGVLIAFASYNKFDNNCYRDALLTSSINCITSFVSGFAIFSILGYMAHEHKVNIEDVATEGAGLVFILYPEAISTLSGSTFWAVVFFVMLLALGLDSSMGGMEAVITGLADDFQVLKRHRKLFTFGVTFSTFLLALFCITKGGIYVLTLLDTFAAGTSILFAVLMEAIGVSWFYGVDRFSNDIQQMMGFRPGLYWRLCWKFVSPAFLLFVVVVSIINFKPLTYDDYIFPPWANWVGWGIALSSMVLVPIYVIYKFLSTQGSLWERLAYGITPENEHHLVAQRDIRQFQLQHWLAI

[24] = Mutagenicity in Salmonella typhimurium TA1537 in absence of rat liver S9 fraction by AMES test; format: toxicity; conditions: salmonella enterica subsp. enterica serovar typhimurium
[25] = Mutagenicity in Salmonella typhimurium TA98 in absence of rat liver S9 fraction by AMES test; format: toxicity; conditions: salmonella enterica subsp. enterica serovar typhimurium
[26] = Ratio of drug level in Wistar rat brain to plasma at 1 mg/kg, ip measured after 35 mins by HPLC-MS/MS analysis; format: ADME, organism-based; conditions: read-out: BPR
[27] = Mutagenicity in Salmonella typhimurium TA100 in presence of rat liver S9 fraction by AMES test; format: toxicity, subcellular; conditions: salmonella enterica subsp. enterica serovar typhimurium
[28] = Plasma concentration in Wistar rat at 10 mg/kg, ip measured after 35 mins by HPLC-MS/MS analysis; format: ADME, organism-based
[29] = Mutagenicity in Salmonella typhimurium TA1537 in presence of rat liver S9 fraction by AMES test; format: toxicity, subcellular; conditions: salmonella enterica subsp. enterica serovar typhimurium
Mus musculus [30] = experiment: Cognitive enhancing effect in scopolamine-induced amnesia NMRI mouse model assessed as increase in recognition index at 1 to 10 mg/kg, ip administered 30 mins prior to scopolamine injection by Y-maze test; format: functional, organism-based; conditions: dose 1-10 mg/kg
[31] = Plasma concentration in Wistar rat at 1 mg/kg, ip measured after 35 mins by HPLC-MS/MS analysis; format: ADME, organism-based
[32] = Apparent permeability across apical to basolateral side in vinblastine-treated human Caco-2 cells expressing P-glycoprotein at 1 uM incubated for 120 mins by HPLC analysis; format: ADME
[33] = Ratio of drug level in NMRI mouse brain to plasma at 10 mg/kg, ip measured after 1 hr by HPLC-MS/MS analysis; format: ADME, organism-based; conditions: read-out: BPR
[34] = Plasma concentration in Wistar rat at 3 mg/kg, ip measured after 35 mins by HPLC-MS/MS analysis; format: ADME, organism-based
[35] = Mutagenicity in Escherichia coli WP2 uvrA in absence of rat liver S9 fraction by AMES test; format: toxicity
[36] = Mutagenicity in Salmonella typhimurium TA98 in presence of rat liver S9 fraction by AMES test; format: toxicity, subcellular; conditions: salmonella enterica subsp. enterica serovar typhimurium
[37] = Mutagenicity in Salmonella typhimurium TA1535 in absence of rat liver S9 fraction by AMES test; format: toxicity; conditions: salmonella enterica subsp. enterica serovar typhimurium
[38] = Plasma concentration in NMRI mouse at 10 mg/kg, ip measured after 1 hr by HPLC-MS/MS analysis; format: ADME, organism-based
[39] = Metabolic stability in NMRI mouse liver microsomes assessed as intrinsic clearance at 1 uM measured per mg protein upto 40 mins; format: ADME, Microsome; conditions: read-out: CLH
[40] = target: T1, Neuronal acetylcholine receptor subunit alpha-7; experiment: Positive allosteric modulator activity at human alpha7 nAChR expressed in Flp-In-HEK293 cells co-expressing RIC-3 assessed as potentiation of PNU282987-induced calcium influx measured after 10 mins by FLIPR assay; format: cell-based, Flp-In-293; conditions: read-out: EC50
[41] = Metabolic stability in Wistar rat liver microsomes assessed as intrinsic clearance at 1 uM measured per mg protein upto 40 mins; format: ADME, Microsome; conditions: read-out: CLH
[42] = Metabolic stability in human liver microsomes assessed as intrinsic clearance at 1 uM measured per mg protein upto 40 mins; format: ADME, Microsome; conditions: read-out: CLH
[43] = Kinetic solubility of compound; format: physicochemical; conditions: read-out: Kinetic_solubility

Cc1ccc(OC2CCCN(C(=O)C(=O)Nc3ccc4c(ccn4C)c3)CC2)cc1 (stereo not given)
Activity [1]: 13%

O=C(NCc1ccc2[nH]ccc2c1)N1CC(COc2ccc(C(F)(F)F)cc2)C1
Activity (Rattus norvegicus [2]): Active
Activity (Rattus norvegicus [3]): Active
Activity [4]: Non-Toxic
minimal effective dose (Rattus norvegicus [5]): 1 mg/kg
inhibition [6]: > 50%
concentration at 1 h [7]: 9920 nM
concentration at 1 h [8]: 2270 nM
concentration at 35 min [9]: 1010 nM
Activity [10]: Non-Toxic
Kp at 1 h [11]: 0.99
Kp at 35 min [12]: 1.38
inhibition [13]: > 50%
concentration at 35 min [14]: 3.11 µM
Activity [15]: Non-Toxic
concentration at 35 min [16]: 11.1 µM
concentration at 1 h [17]: 673 nM
Kp at 1 h [18]: 1.04
concentration at 1 h [19]: 647 nM
minimal effective dose (Mus musculus [20]): 1 mg/kg
Kp at 35 min [21]: 1.4
concentration at 1 h [22]: 2210 nM
inhibition [23]: > 50%
Activity [24]: Non-Toxic
Activity [25]: Non-Toxic
Kp at 35 min [26]: 1.43
Activity [27]: Non-Toxic
concentration at 35 min [28]: 8.02 µM
Activity [29]: Non-Toxic
Activity (Mus musculus [30]): Active
concentration at 35 min [31]: 746 nM
Papp A→B at 2 h, 1 µM [32]: 55 ×10⁻⁶ cm/s
Kp at 1 h [33]: 1.06
concentration at 35 min [34]: 2220 nM
Activity [35]: Non-Toxic
Activity [36]: Non-Toxic
Activity [37]: Non-Toxic
concentration at 1 h [38]: 9470 nM

Cc1ccc(Oc2ccc(C(=O)C(=O)Nc3ccc4c(ccn4C)c3)cn2)cc1
concentration at 1 h [7]: 1930 nM
concentration at 1 h [8]: 417 nM
Kp at 1 h [11]: 1.17
microsomal CLint at 1 µM [39]: 33 µL/min/mg
concentration at 1 h [17]: 108 nM
Kp at 1 h [18]: 1.05
concentration at 1 h [19]: 104 nM
pEC50 [40]: 6.89
microsomal CLint at 1 µM [41]: 59 µL/min/mg
concentration at 1 h [22]: 492 nM
Activity (Mus musculus [30]): Active
Kp at 1 h [33]: 1.53
microsomal CLint at 1 µM [42]: 51 µL/min/mg
solubility kinetic [43]: 3 µM (≈ 1.16 µg/mL)
concentration at 1 h [38]: 1260 nM

Cc1ccc(O[C@H]2CC[C@@H](C(=O)NCc3ccc4c(ccn4C)c3)CC2)cc1
Activity [1]: 16%

Cc1ccc(OC2CCN(C(=O)C(=O)Nc3ccc4c(ccn4C)c3)CC2)cc1
concentration at 1 h [7]: 1290 nM
concentration at 1 h [8]: 170 nM
Kp at 1 h [11]: 1.74
concentration at 1 h [17]: 120 nM
Kp at 1 h [18]: 1.95
concentration at 1 h [19]: 63 nM
pEC50 [40]: 6.92
concentration at 1 h [22]: 297 nM
Activity (Mus musculus [30]): Active
Kp at 1 h [33]: 1.96
concentration at 1 h [38]: 653 nM
